Experimental data taken from patent US9210927B2, “Pesticidal compositions and processes related thereto” (Dow AgroSciences LLC, priority 2013, dated 2015).

Assays:
Type in all cases: in vivo
BAW (Spodoptera exigua) = assay: Bioassays on Beet Armyworm (BAW), 128-well diet tray assay; conditions: Spodoptera exigua, 168 h, read-out: BAW Rating
Method in brief: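 Second-instar larvae (one to five per well) placed on artificial diet treated with 50 μg/cm^2 compound in 90:10 acetone-water, eight wells per compound. Held covered at 25° C., 14:10 light-dark for five to seven days; percent mortality averaged across wells.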

CEW (Helicoverpa zea) = assay: Bioassays on Corn Earworm (CEW), 128-well diet tray assay; conditions: Helicoverpa zea, 168 h; percent mortality, second instar larvae, 50 μg/cm^2 on artificial diet, five to seven days, 25° C.; read-out: CEW Rating
Method in brief: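 Second-instar larvae (one to five per well) placed on artificial diet treated with 50 μg/cm^2 compound in 90:10 acetone-water and dried, eight wells per compound. Held 25 °C, 14:10 light-dark, five to seven days; percent mortality scored per well and averaged.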

GPA (Myzus persicae) = assay: Bioassays on Green Peach Aphid (GPA), foliar spray on cabbage seedlings; conditions: 72 h, corrected % control (Abbott), 200 ppm spray on cabbage seedlings, three days, read-out: GPA Rating
Procedure: Bioassays on Green Peach Aphid (“GPA”) (Myzus persicae) Certain molecules disclosed in this document were tested against GPA using procedures described in the following example. In the reporting of the results, the “GPA Rating Table” was used (See Table Section). Cabbage seedlings grown in 3-inch pots, with 2-3 small (3-5 cm) true leaves, were used as test substrate. The seedlings were infested with 20-50 GPA (wingless adult and nymph stages) one day prior to chemical application. Four pots with individual seedlings were used for each treatment. Test compounds (2 mg) were dissolved in 2 mL of acetone/MeOH (1:1) solvent, forming stock solutions of 1000 ppm test compound. The stock solutions were diluted 5× with 0.025% Tween 20 in H2O to obtain the solution at 200 ppm test compound. A hand-held aspirator-type sprayer was used for spraying a solution to both sides of […] leaves until runoff. Reference plants (solvent check) were sprayed with the diluent only containing 20% by volume of acetone/MeOH (1:1) solvent. Treated plants were held in a holding room for three days at approximately 25° C. and ambient relative humidity (RH) prior to grading. Evaluation was conducted by counting the number of live aphids per plant under a microscope. Percent Control was measured by using Abbott's correction formula (W. S. Abbott, “A Method of Computing the Effectiveness of an Insecticide” J. Econ. Entomol. 18 (1925), pp. 265-267) as follows. Corrected % Control=100*(X−Y)/X • where • X=No. of live aphids on solvent check plants and • Y=No. of live aphids on treated plants The results are indicated in the table entitled “Table 3: Assay Results” (See Table Section).

SMILES | pest or weed control at 50 µg/cm2 (BAW (Spodoptera exigua)) | pest or weed control at 50 µg/cm2 (CEW (Helicoverpa zea)) | pest or weed control at 200 ppm (GPA (Myzus persicae))
Cc1cc(/C=C/C(c2cc(Cl)c(Cl)c(Cl)c2)C(F)(F)F)ccc1C(=O)NC(C)(C)c1ccccn1 (stereo not drawn) [AC27] | 50 to 100% | 50 to 100% | 0 to 80%
O=C(NCc1ccc(Cl)nc1)c1ccc(/C=C/C(c2cc(Cl)c(Cl)c(Cl)c2)C(F)(F)F)cc1Cl (stereo not drawn) [AC28] | 50 to 100% | 50 to 100% | 0 to 80%
O=C(NC1CSC1)c1ccc(/C=C/C(c2cc(Cl)c(Cl)c(Cl)c2)C(F)(F)F)cc1Cl (stereo not drawn) [AC29] | 50 to 100% | 50 to 100% | 0 to 80%
O=C(NC1CS(=O)(=O)C1)c1ccc(/C=C/C(c2cc(Cl)c(Cl)c(Cl)c2)C(F)(F)F)cc1Cl (stereo not drawn) [AC30] | 50 to 100% | 50 to 100% | 0 to 80%
O=C(NCc1ccc(Cl)nc1)c1ccc(/C=C/C(c2cc(Cl)c(Cl)c(Cl)c2)C(F)(F)F)cc1Br (stereo not drawn) [AC31] | 50 to 100% | 50 to 100% | 0 to 80%
O=C(NC1CSC1)c1ccc(/C=C/C(c2cc(Cl)c(Cl)c(Cl)c2)C(F)(F)F)cc1Br (stereo not drawn) [AC32] | 50 to 100% | 50 to 100% | 0 to 80%
O=C(NC1CS(=O)(=O)C1)c1ccc(/C=C/C(c2cc(Cl)c(Cl)c(Cl)c2)C(F)(F)F)cc1Br (stereo not drawn) [AC33] | 50 to 100% | 50 to 100% | 0 to 80%
O=C(NC1CSC1)c1ccc(/C=C/C(c2cc(Cl)c(Cl)c(Cl)c2)C(F)(F)F)cc1C(F)(F)F (stereo not drawn) [AC34] | 50 to 100% | 50 to 100% | 0 to 80%
O=C(NCc1ccc(Cl)nc1)c1ccc(/C=C/C(c2cc(Cl)c(Cl)c(Cl)c2)C(F)(F)F)cc1C(F)(F)F (stereo not drawn) [AC36] | 50 to 100% | 50 to 100% | 0 to 80%
Cc1cc(/C=C/C(c2ccc(Cl)c(Cl)c2)C(F)(F)F)ccc1C(=O)NCc1ccc(Cl)nc1 (stereo not drawn) [AC37] | 50 to 100% | 50 to 100% | 0 to 80%
Cc1cc(/C=C/C(c2cc(Cl)cc(Cl)c2)C(F)(F)F)ccc1C(=O)NCc1cnccn1 (stereo not drawn) [AC43] | 50 to 100% | 50 to 100% | 0 to 80%
Cc1cc(/C=C/C(c2cc(Cl)cc(Cl)c2)C(F)(F)F)ccc1C(=O)NCc1ccc(Cl)cc1 (stereo not drawn) [AC48] | 50 to 100% | 50 to 100% | 0 to 80%
O=C(NCc1ccc(Cl)nc1)c1ccc(/C=C/C(c2cc(Cl)cc(Cl)c2)C(F)(F)F)cc1F (stereo not drawn) [AC49] | 50 to 100% | 50 to 100% | 0 to 80%
Cc1cc(/C=C/C(c2cc(Cl)cc(Cl)c2)C(F)(F)F)ccc1C(=O)NCC(=O)N(C)CC(F)(F)F (stereo not drawn) [AC51] | 50 to 100% | 50 to 100% | 0 to 80%
Cc1cc(/C=C/C(c2cc(Cl)c(F)c(Cl)c2)C(F)(F)F)ccc1C(=O)NC1CCOCC1 (stereo not drawn) [AC52] | 50 to 100% | 50 to 100% | 0 to 80%
Cc1cc(/C=C/C(c2cc(Cl)c(F)c(Cl)c2)C(F)(F)F)ccc1C(=O)NCc1ccc(Cl)cn1 (stereo not drawn) [AC53] | 50 to 100% | 50 to 100% | 0 to 80%

SMILES | pest or weed control at 50 µg/cm2 (BAW (Spodoptera exigua)) | pest or weed control at 50 µg/cm2 (CEW (Helicoverpa zea)) | pest or weed control at 200 ppm (GPA (Myzus persicae))
Cc1cc(/C=C/C(c2cc(Cl)c(F)c(Cl)c2)C(F)(F)F)ccc1C(=O)NCc1ccnc(Cl)c1 (stereo not drawn) [AC54] | 50 to 100% | 50 to 100% | 0 to 80%
CC(C)(C)OC(=O)CNC(=O)c1ccc(/C=C/C(c2cc(Cl)c(Cl)c(Cl)c2)C(F)(F)F)cc1Br (stereo not drawn) [AC58] | 50 to 100% | 50 to 100% | 0 to 80%
Cc1cc(/C=C/C(c2cc(Cl)cc(Cl)c2)C(F)(F)F)ccc1C(=O)Nc1ccc(Cl)nc1 (stereo not drawn) [AC59] | 50 to 100% | 50 to 100% | 0 to 80%
O=C(NC1CSC1)c1ccc(/C=C/C(c2cc(Cl)cc(Cl)c2)C(F)(F)F)cc1F (stereo not drawn) [AC61] | 50 to 100% | 50 to 100% | 0 to 80%
O=C(NCc1ccc(Cl)nc1)c1ccc(/C=C/C(c2cc(Cl)c(F)c(Cl)c2)C(F)(F)F)cc1Br (stereo not drawn) [AC63] | 50 to 100% | 50 to 100% | 0 to 80%
O=C(CNC(=O)c1ccc(/C=C/C(c2cc(Cl)c(Cl)c(Cl)c2)C(F)(F)F)cc1Cl)NCC(F)(F)F (stereo not drawn) [AC64, (E)-2-Chloro-N-(2-oxo-2-((2,2,2-trifluoroethyl)amino)ethyl)-4-(4,4,4-trifluoro-3-(3,4,5-trichlorophenyl)but-1-en-1-yl)benzamide] | 50 to 100% | 50 to 100% | 0 to 80%
O=C(NCc1ccc(Cl)nc1)c1ccc(/C=C/C(c2cc(Cl)c(F)c(Cl)c2)C(F)(F)F)cc1F (stereo not drawn) [AC65] | 50 to 100% | 50 to 100% | 0 to 80%
O=C(CNC(=O)c1ccc(/C=C/C(c2cc(Cl)c(Cl)c(Cl)c2)C(F)(F)F)cc1Br)NCC(F)(F)F (stereo not drawn) [AC66] | 50 to 100% | 50 to 100% | 0 to 80%
O=C(NC1CSC1)c1ccc(/C=C/C(c2cc(Cl)c(F)c(Cl)c2)C(F)(F)F)cc1F (stereo not drawn) [AC67] | 50 to 100% | 50 to 100% | 0 to 80%
Cc1cc(/C=C/C(c2cc(Cl)c(F)c(Cl)c2)C(F)(F)F)ccc1C(=O)NCC(=O)NCC(F)(F)F (stereo not drawn) [AC69] | 50 to 100% | 50 to 100% | 80 to 100%
COc1cc(/C=C/C(c2cc(Cl)c(F)c(Cl)c2)C(F)(F)F)ccc1C(=O)NC1CSC1 (stereo not drawn) [AC71] | 50 to 100% | 50 to 100% | 0 to 80%
CCc1cc(/C=C/C(c2cc(Cl)c(F)c(Cl)c2)C(F)(F)F)ccc1C(=O)NCc1ccc(Cl)nc1 (stereo not drawn) [AC72] | 50 to 100% | 50 to 100% | 0 to 80%
O=C(NCc1ccc(C(F)(F)F)nc1)c1ccc(/C=C/C(c2cc(Cl)c(Cl)c(Cl)c2)C(F)(F)F)cc1Br (stereo not drawn) [AC75] | 50 to 100% | 50 to 100% | 0 to 80%
Cc1cc(/C=C/C(c2cc(Cl)c(F)c(Cl)c2)C(F)(F)F)ccc1C(=O)NCc1cc(Cl)ccn1 (stereo not drawn) [AC77] | 50 to 100% | 50 to 100% | 0 to 80%
Cc1cc(/C=C/C(c2cc(Cl)c(Cl)c(Cl)c2)C(F)(F)F)ccc1C(=O)NCC(=O)NCC(F)(F)F (stereo not drawn) [AC78] | 50 to 100% | 50 to 100% | 80 to 100%
O=C(CNC(=O)c1ccc(/C=C/C(c2cc(Cl)c(F)c(Cl)c2)C(F)(F)F)cc1Br)NCC(F)(F)F (stereo not drawn) [AC79, (E)-2-Bromo-4-(3-(3,5-dichloro-4-fluorophenyl)-4,4,4-trifluorobut-1-en-1-yl)-N-(2-oxo-2-((2,2,2-trifluoroethyl)amino)ethyl)benzamide] | 50 to 100% | 50 to 100% | 80 to 100%
